# What was measured:
# Format in all cases: cell-based
# Proteus mirabilis V15 = assay: in vitro antibacterial activity (MIC); settings: read-out: MIC (minimal inhibitory concentration)
# [1] = system: Klebsiella pneumoniae ATCC 10031; assay: in vitro antibacterial activity (MIC), second listing of the strain; settings: ATCC10031, collection strain (second listing), read-out: MIC (minimal inhibitory concentration)
# Shigella flexneri = assay: in vitro antibacterial activity (MIC); settings: read-out: MIC (minimal inhibitory concentration)
# Procedure: A series of tests was carried out in vitro to compare the activities of (5R)-acetoxymethyl-2-acetoxymethyl-2-penum-3-carboxylate (Laboratory code FCE/20077/B40/341), (5R) acetoxymethyl-2-[(1-methyl-1H-tetrazol-5-yl)-thiomethyl]-2-penem-3-carboxylate (compound A), three reference compounds (ampicillin, cefoxitin, and thienamycin), and compound 387, which is (5R)-2-acetoxymethyl-6-(1-hydroxyethyl)-2-penem-3-carboxylic acid. The acetoxymethoxy ester of compound 387 is prepared in Example 51 and the sodium salt of the acid is prepared in Example 98 infra. Table 1 below reports the results of the above assays as MIC (minimal inhibitory concentration).
# [2] = system: Pseudomonas aeruginosa ATCC 2598; assay: in vitro antibacterial activity (MIC); settings: ATCC2598, collection strain, read-out: MIC (minimal inhibitory concentration)
# Escherichia coli B = assay: in vitro antibacterial activity (MIC); settings: in vitro; Escherichia coli B; collection strain; read-out: MIC (minimal inhibitory concentration)
# Escherichia coli V23 = assay: in vitro antibacterial activity (MIC); settings: read-out: MIC (minimal inhibitory concentration)
# Escherichia coli V14 = assay: in vitro antibacterial activity (MIC); settings: read-out: MIC (minimal inhibitory concentration)
# [3] = system: Staphylococcus aureus 209P; assay: in vitro antibacterial activity (MIC); settings: collection strain, read-out: MIC (minimal inhibitory concentration)
# [4] = system: Klebsiella pneumoniae ATCC 10031; assay: in vitro antibacterial activity (MIC); settings: ATCC10031, Klebsiella pneumoniae ATCC 10031 (first listing), read-out: MIC (minimal inhibitory concentration)
# [5] = system: Salmonella Saint Paul F20; assay: in vitro antibacterial activity (MIC); settings: read-out: MIC (minimal inhibitory concentration)
# Escherichia coli R 6 K = assay: in vitro antibacterial activity (MIC); settings: R6K, read-out: MIC (minimal inhibitory concentration)
# Proteus mirabilis = assay: in vitro antibacterial activity (MIC), collection strain; settings: in vitro, collection strain, read-out: MIC (minimal inhibitory concentration)
# [6] = system: Salmonella montevideo F16; assay: in vitro antibacterial activity (MIC); settings: Salmonella enterica, read-out: MIC (minimal inhibitory concentration)
# Enterobacter sp V19 = assay: in vitro antibacterial activity (MIC); settings: read-out: MIC (minimal inhibitory concentration)
# Pseudomonas aeruginosa = assay: in vitro antibacterial activity (MIC); settings: in vitro, read-out: MIC (minimal inhibitory concentration)
# [7] = system: Pseudomonas aeruginosa FI; assay: in vitro antibacterial activity (MIC); settings: collection strain, read-out: MIC (minimal inhibitory concentration)
# Escherichia coli R 57 B = assay: in vitro antibacterial activity (MIC); settings: R57B; in vitro; Escherichia coli R 57 B; lactamase producer; read-out: MIC (minimal inhibitory concentration)
# Salmonella panamae F15 = assay: in vitro antibacterial activity (MIC); settings: in vitro; Salmonella panamae F15; read-out: MIC (minimal inhibitory concentration)
# Escherichia coli R 46 = assay: in vitro antibacterial activity (MIC); settings: R46; in vitro; Escherichia coli R 46; lactamase producer; read-out: MIC (minimal inhibitory concentration)
# Klebsiella sp. R2 = assay: in vitro antibacterial activity (MIC); settings: read-out: MIC (minimal inhibitory concentration)
# Escherichia coli RGN 238 = assay: in vitro antibacterial activity (MIC); settings: RGN238, lactamase producer, read-out: MIC (minimal inhibitory concentration)
# Proteus vulgaris V15 = assay: in vitro antibacterial activity (MIC); settings: read-out: MIC (minimal inhibitory concentration)
# Salmonella derby F14 = assay: in vitro antibacterial activity (MIC); settings: Salmonella enterica, read-out: MIC (minimal inhibitory concentration)
# [8] = system: Staphylococcus aureus Smith; assay: in vitro antibacterial activity (MIC); settings: collection strain, read-out: MIC (minimal inhibitory concentration)
# Escherichia coli P 453 = assay: in vitro antibacterial activity (MIC); settings: P453; in vitro; Escherichia coli P 453; lactamase producer; read-out: MIC (minimal inhibitory concentration)
# Escherichia coli RP 1 = assay: in vitro antibacterial activity (MIC); settings: RP1, read-out: MIC (minimal inhibitory concentration)
# Enterobacter cloacae 214 = assay: in vitro antibacterial activity (MIC); settings: lactamase producer, read-out: MIC (minimal inhibitory concentration)
# [9] = system: Staphylococcus aureus 153; assay: in vitro antibacterial activity (MIC); settings: lactamase producer, read-out: MIC (minimal inhibitory concentration)
# Escherichia coli R 997 = assay: in vitro antibacterial activity (MIC); settings: R997, read-out: MIC (minimal inhibitory concentration)
# [10] = system: Klebsiella aerogenes ATCC 1082 E; assay: in vitro antibacterial activity (MIC); settings: ATCC1082; in vitro; Klebsiella aerogenes ATCC 1082 E; lactamase producer; read-out: MIC (minimal inhibitory concentration)
# Streptococcus pyogenes = assay: in vitro antibacterial activity (MIC); settings: in vitro, read-out: MIC (minimal inhibitory concentration)
# Salmonella typhimurium [11] = assay: in vitro antibacterial activity (MIC); settings: Salmonella enterica, Salmonella typhimurium (first listing), read-out: MIC (minimal inhibitory concentration)
# Escherichia coli B Cef R = assay: in vitro antibacterial activity (MIC); settings: read-out: MIC (minimal inhibitory concentration)
# [12] = system: Salmonella abortivoequina; assay: in vitro antibacterial activity (MIC); settings: collection strain, read-out: MIC (minimal inhibitory concentration)
# [13] = system: Staphylococcus aureus PV2; assay: in vitro antibacterial activity (MIC); settings: read-out: MIC (minimal inhibitory concentration)
# Proteus mirabilis 525 = assay: in vitro antibacterial activity (MIC); settings: in vitro; Proteus mirabilis 525; read-out: MIC (minimal inhibitory concentration)
# Salmonella typhimurium [14] = assay: in vitro antibacterial activity (MIC), collection strain; settings: Salmonella enterica; in vitro; Salmonella Typhimurium; collection strain (second listing); read-out: MIC (minimal inhibitory concentration)
# [15] = system: Enterobacter cloacae P 99; assay: in vitro antibacterial activity (MIC); settings: P99, read-out: MIC (minimal inhibitory concentration)
Structure (SMILES),MIC (Proteus mirabilis V15),MIC [1],MIC (Shigella flexneri),MIC [2],MIC (Escherichia coli B),MIC (Escherichia coli V23),MIC (Escherichia coli V14),MIC [3],MIC [5],MIC (Escherichia coli R 6 K),MIC (Proteus mirabilis),MIC [6],MIC (Enterobacter sp V19),MIC (Pseudomonas aeruginosa),MIC [7],MIC (Escherichia coli R 57 B),MIC [8],MIC [9],MIC (Streptococcus pyogenes),MIC (Salmonella typhimurium [11]),other results
CC1(C)S[C@@H]2[C@H](NC(=O)[C@H](N)c3ccccc3)C(=O)N2[C@H]1C(=O)O [Ampicillin],≤ 0.19 µg/mL,25 µg/mL,≤ 0.19 µg/mL,> 100 µg/mL,0.39 µg/mL,3.12 µg/mL,1.56 µg/mL,≤ 0.19 µg/mL,0.78 µg/mL,> 100 µg/mL,> 100 µg/mL,0.78 µg/mL,> 100 µg/mL,25 µg/mL,> 100 µg/mL,25 µg/mL,≤ 0.19 µg/mL,1.56 µg/mL,3.12 µg/mL,0.78 µg/mL,MIC [4]: 50 µg/mL; MIC (Salmonella panamae F15): 0.78 µg/mL; MIC (Escherichia coli R 46): 25 µg/mL; MIC (Klebsiella sp. R2): 50 µg/mL; MIC (Escherichia coli RGN 238): > 100 µg/mL; MIC (Proteus vulgaris V15): 1.56 µg/mL; MIC (Salmonella derby F14): 0.78 µg/mL; MIC (Escherichia coli P 453): > 100 µg/mL; MIC (Escherichia coli RP 1): > 100 µg/mL; MIC (Enterobacter cloacae 214): > 100 µg/mL; MIC (Escherichia coli R 997): > 100 µg/mL; MIC [10]: > 100 µg/mL; MIC (Escherichia coli B Cef R): > 100 µg/mL; MIC [12]: 0.19 µg/mL; MIC [13]: ≤ 0.19 µg/mL; MIC (Proteus mirabilis 525): 0.39 µg/mL; MIC (Salmonella typhimurium [14]): 0.78 µg/mL; MIC [15]: > 100 µg/mL
"CC(=O)OCC1=C(C(=O)O)N2C(=O)C(C(C)O)[C@H]2S1 (stereo partly drawn) [Example 387, (5R)-2-acetoxymethyl-6-(1-hydroxyethyl)-2-penem-3-carboxylic acid]",–,0.78 µg/mL,–,> 25 µg/mL,0.78 µg/mL,–,–,0.095 µg/mL,–,0.78 µg/mL,0.39 µg/mL,–,–,1.56 µg/mL,1.56 µg/mL,0.78 µg/mL,0.045 µg/mL,0.045 µg/mL,0.19 µg/mL,0.39 µg/mL,MIC (Escherichia coli R 46): 0.78 µg/mL; MIC (Escherichia coli RGN 238): 0.78 µg/mL; MIC (Escherichia coli P 453): 0.78 µg/mL; MIC (Escherichia coli RP 1): 0.39 µg/mL; MIC (Enterobacter cloacae 214): 12.5 µg/mL; MIC (Escherichia coli R 997): 0.78 µg/mL; MIC [10]: 1.56 µg/mL; MIC (Escherichia coli B Cef R): 25 µg/mL; MIC [12]: 0.19 µg/mL; MIC (Salmonella typhimurium [14]): 0.39 µg/mL; MIC [15]: 3.12 µg/mL
"CC(=O)OCOC(=O)C1=C(COC(C)=O)S[C@@H]2CC(=O)N12 [FCE/20077/B40/341, (5R)-Acetoxymethyl-2-acetoxymethyl-2-penem-3-carboxylate]",0.39 µg/mL,–,0.39 µg/mL,–,1.56 µg/mL,3.12 µg/mL,1.56 µg/mL,0.39 µg/mL,1.56 µg/mL,–,–,3.12 µg/mL,12.5 µg/mL,3.12 µg/mL,–,–,≤ 0.19 µg/mL,1.56 µg/mL,3.12 µg/mL,1.56 µg/mL,MIC (Salmonella panamae F15): 1.56 µg/mL; MIC (Klebsiella sp. R2): 25 µg/mL; MIC (Proteus vulgaris V15): 3.12 µg/mL; MIC (Salmonella derby F14): 3.12 µg/mL; MIC [13]: 0.39 µg/mL; MIC (Proteus mirabilis 525): 3.12 µg/mL

# — patent US4482565A, “β-Lactam-containing antibacterial agents and β-lactamase inhibitors” (Farmitalia Carlo Erba S.p.A., priority 1981, dated 1984)
